Measurements reported in patent publication US8785402B2, “Compositions and assays for treatment and diagnosis of helicobacter pylori infection and conditions” (Academia Sinica, priority 2009, dated 2014).
“Also recorded” adds a separate entry of the source.

Experiments:
[1] = tested on: Le^x antigen in H. pylori; experiment: Anti-Le^x immunoblot of H. pylori lysates after co-culture with AGS cells; type: cell-based, Helicobacter pylori; settings: 100 μM FNJ, DU-152 to DU-157, 12 h, MOI ~400:1
Protocol: (§1) FIGS. 11A-11D collectively show immunoblot analysis of H. pylori-infected Capan 1 and AGS cells with mouse monoclonal anti-Le^x antigen. Capan 1 and AGS cells were infected with different H. pylori strains (from DU-152 to DU-157) that were clinical isolates from six different patients with duodenal ulcer (DU). PBS represents a negative control in the absence of H. pylori. The co-culture was maintained for 12 h at an MOI of ˜400:1. In the parallel experiments, Capan 1 (11a) and AGS cells (11c) were infected under the same conditions. The effect of α-L-fucosidase was evaluated by addition of 100 μM FNJ to the co-cultures of Capan 1 (11b) and AGS cells (11d) with various H. pylori strains. The bacterial cells were collected and lysed for Le^x analysis.
(§2) The secretion of FUCA2 directly results in the extracellular production of L-fucose residues that are then incorporated into H. pylori. It is important to determine if the L-fucose-related biosynthesis is affected at the same time. […] The H. pylori cell lysates were analyzed by SDS-PAGE 12 h after infection and immunoblotted with a Le^x-specific monoclonal antibody. […] In contrast, Le^x-containing glycoproteins were detected in substantial amounts without FNJ treatment (FIGS. 11A and 11C, corresponding to H. pylori-infected Capan 1 and AGS cells, respectively).

[2] = tested on: Le^x antigen in H. pylori; experiment: Anti-Le^x immunoblot of H. pylori lysates after co-culture with Capan 1 cells; type: cell-based, Helicobacter pylori
Protocol: as §1, §2

[3] = tested on: H. pylori-infected AGS cells; experiment: Transfer of 6-azido-L-fucose from AGS host cells to H. pylori; type: cell-based, human; settings: 100 μM FNJ
From the text: (§3) A considerable proportion of H. pylori in the stomach is located at the epithelial mucosa (Schreiber S, et al. Proc. Natl. Acad. Sci. USA 2004, 101:5024-5029) where there are various fucose-containing oligosaccharides including Lewis antigens. To determine if H. pylori acquires L-fucose from host cells, similar to the interaction between B. thetaiotaomicron and small intestine cells (Hooper, et al. Proc. Natl. Acad. Sci. USA 1999, 96:9833-9838), the click chemistry-based fluorogenic labeling method developed by Wong and coworkers (Sawa M, et al. Proc. Natl. Acad. Sci. USA 2006, 103:12371-12376) was applied to detect fucosylated glycoconjugates. […]
(§4) CagA of H. pylori was the first reported bacterial virulence protein translocated by a type IV secretion system (Stein, et al., Proc. Natl. Acad. Sci. USA 2000, 97:1263-1268). Translocated CagA protein can be detected inside host cells soon after H. pylori attachment. The adhesion efficiency of H. pylori can be thus measured by monitoring the level of translocated CagA inside host cells. […] The epithelial cell lysates were analyzed by SDS-PAGE 6-8 h after infection and immunoblotted with a CagA-specific monoclonal antibody. CagA (˜140 kDa) was detected when mock-transfected Capan 1 cells were infected with each different H. pylori strain (FIG. 7B). […]

[4] = tested on: H. pylori-infected Capan 1 cells; experiment: Transfer of 6-azido-L-fucose from Capan 1 host cells to H. pylori; type: cell-based, human; settings: Capan 1, 100 μM FNJ
From the text: as §3, §4

[5] = tested on: human FUT3 and FUT6; experiment: Anti-Fut 3/6 immunoblot of Capan 1 cells infected with H. pylori; type: cell-based; settings: Capan 1 cells pre-treated with H. pylori and 50 nM FNJ for 4 h
Protocol: Lane A, extract of Capan 1 cells. Lane B, extract of Capan 1 cells pre-treated with H. pylori for 4 h. Lanes C, C′, duplicate independent experiments of extract of Capan 1 cells pre-treated with H. pylori and 50 nM of the α-L-fucosidase inhibitor, FNJ, for 4 h.
L-Fucose is a likely source of utilizable carbon and energy because it is located at the termini of mammalian glycoconjugates. L-Fucose is an abundant component of many host gastric mucosa glycoconjugates (Madrid, et al., J. Histochem. Cytochem 1998, 46:1311-1320) that are constitutively synthesized by host cells. Thus, the “request” from H. pylori to manufacture fucosylated glycans may require the host to activate translation of one or more of its fucosyltransferase proteins.

[6] = tested on: H. pylori-infected AGS cells; experiment: Immunoblot of translocated CagA (adhesion efficiency of H. pylori) in infected AGS cells; type: cell-based, human; settings: 100 μM FNJ
Protocol: (§5) FIG. 8A-8D collectively provide immunoblot analysis of epithelial cells infected with H. pylori using mouse monoclonal anti-CagA. Capan 1 and AGS cells were infected with different H. pylori strains, including CagA^+ and CagA^−, and various clinical isolates from patients with gastritis (GS), duodenal ulcer (DU) and gastric cancer (GC). PBS represents the negative control. The co-culture was maintained for 6-8 h at an MOI of ˜200:1. In the parallel experiments, Capan 1 (a) and AGS cells (c) were infected under the same conditions. The effect of α-L-fucosidase was evaluated by addition of 100 μM FNJ to the co-cultures of Capan 1 (b) and AGS cells (d) with various H. pylori strains.
(§6) FIG. 9 illustrates immunoblot analysis of H. pylori-infected epithelial cells with mouse monoclonal anti-CagA. Capan 1 and AGS cells were infected with different H. pylori strains that were clinical isolates from five different patients with duodenal ulcer (DU). PBS was used as a negative control in the absence of H. pylori. The co-culture was maintained for 6-8 h at an MOI of ˜200:1. […] The effect of α-L-fucosidase was evaluated by addition of 100 μM of the α-L-fucosidase inhibitor, FNJ, to co-cultures of Capan 1 (b) and AGS cells (d) with the indicated H. pylori strains. […]
as §4, with “7B). Nonetheless, CagA was not detected upon Capan 1-FUCA2 K.D. infection with the different H. pylori strains, with the exception of GS (FIG. 7C).” for “7B).”

[7] = tested on: H. pylori-infected Capan 1 cells; experiment: Immunoblot of translocated CagA (adhesion efficiency of H. pylori) in infected Capan 1 cells; type: cell-based, human; settings: Capan 1, 100 μM FNJ
Protocol: as §5, §6
as §4, with “7B). Nonetheless, CagA was not detected upon Capan 1-FUCA2 K.D. infection with the different H. pylori strains, with the exception of GS (FIG. 7C).” for “7B).”

[8] = tested on: H. pylori; experiment: Adherence of H. pylori to host cells on treatment of infected cells; type: cell-based, Helicobacter pylori; settings: summary statement; host cells not specified
From the text: CagA of H. pylori was the first reported bacterial virulence protein translocated by a type IV secretion system (Stein, et al., Proc. Natl. Acad. Sci. USA 2000, 97:1263-1268). Translocated CagA protein can be detected inside host cells soon after H. pylori attachment. The adhesion efficiency of H. pylori can be thus measured by monitoring the level of translocated CagA inside host cells. Four different epithelial cell lines were chosen for the study, namely mock-transfected Capan 1, Capan 1-FUCA2 K.D., Capan 1, and AGS cells. Isogenic vacA (CagA+), cagA (CagA−) mutants, and clinical isolates from patients with gastritis (GS), duodenal ulcer (DU), and gastric cancer (GC) were selected for co-culturing with the four epithelial cell lines. The epithelial cell lysates were analyzed by SDS-PAGE 6-8 h after infection and immunoblotted with a CagA-specific monoclonal antibody. CagA (˜140 kDa) was detected when mock-transfected Capan 1 cells were infected with each different H. pylori strain (FIG. 7B). Nonetheless, CagA was not detected upon Capan 1-FUCA2 K.D. infection with the different H. pylori strains, with the exception of GS (FIG. 7C). […] In contrast, CagA was detected in substantial amounts without FNJ treatment (FIGS. 8A and 8C, corresponding to the results of Capan 1 and AGS cells, respectively).

[9] = DU strains DU-152, DU-153, DU-154, DU-155, DU-157
[10] = DU- or GC-specific H. pylori strains, 6-8 h, MOI ~200:1
[11] = GS-specific H. pylori strain, 6-8 h

`CC1NC(CN)C(O)C(O)C1O` (stereo not shown) [FNJ, 1-aminomethyl-1-deoxy-fuconojirimycin] was tested, and the “Le^x-expression level in H. pylori” value [1] was “considerably reduce; also recorded: significantly less”, the “Le^x-expression level in H. pylori” value ([2]; Capan 1, 100 μM FNJ, DU-152 to DU-157, 12 h, MOI ~400:1) was “considerably reduce; also recorded: significantly less” and the “level of Le^x-containing glycoproteins in H. pylori” value ([2]; summary statement, host cells not specified) was “significantly reduced”. The “transfer of 6-azido-L-fucose from host cells to H. pylori” value [3] was “considerably reduce”, the “transfer of 6-azido-L-fucose from host cells to H. pylori” value [4] was “considerably reduce” and the “expression of human FUT3 and FUT6” value [5] was “decreased substantially”. The “CagA present in host cells” value [6, 9] was “no longer present”, the “CagA detected in host cells” value [6, 10] was “consistent with those obtained in AGS cells” and the “level of CagA” value [6, 11] was “not affected”. For the same molecule, the “CagA present in host cells” value [7, 9] was “no longer present”, the “CagA detected in host cells” value [7, 10] was “no or little CagA was detected” and the “level of CagA” value [7, 11] was “not affected”. For the same molecule, the “adherence of H. pylori to host cells” value [8] was “effectively prevented adherence”.
